Source: PubChem BioAssay (NCI)
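Cultured in 96-well plates, cells were exposed to test compound for 48 hours across five concentrations. Here, GI50 denotes the concentration required for 50% inhibition of growth. TGI marks complete inhibition of growth.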

Tests used:
Experiment in all cases: growth of human tumour cells (NCI), 48 h
UACC-257 melanoma = test system: UACC-257 melanoma
HT29 colon = test system: HT29 colon
SK-OV-3 ovarian = test system: SK-OV-3 ovarian
MOLT-4 leukemia = test system: MOLT-4 leukemia
HCT-15 colon = test system: HCT-15 colon
A498 renal = test system: A498 renal
UACC-62 melanoma = test system: UACC-62 melanoma
HCT-116 colon = test system: HCT-116 colon
SK-MEL-2 melanoma = test system: SK-MEL-2 melanoma
SF-268 CNS = test system: SF-268 CNS
CAKI-1 renal = test system: CAKI-1 renal
SNB-75 CNS = test system: SNB-75 CNS
T-47D breast = test system: T-47D breast
KM12 colon = test system: KM12 colon
HOP-92 NSCLC = test system: HOP-92 NSCLC
SF-539 CNS = test system: SF-539 CNS
COLO 205 colon = test system: COLO 205 colon
DU-145 prostate = test system: DU-145 prostate
HCC-2998 colon = test system: HCC-2998 colon
OVCAR-3 ovarian = test system: OVCAR-3 ovarian
ACHN renal = test system: ACHN renal
NCI/ADR-RES ovarian = test system: NCI/ADR-RES ovarian
SNB-19 CNS = test system: SNB-19 CNS
CCRF-CEM leukemia = test system: CCRF-CEM leukemia
OVCAR-4 ovarian = test system: OVCAR-4 ovarian
NCI-H226 lung = test system: NCI-H226 lung
HOP-62 NSCLC = test system: HOP-62 NSCLC
NCI-H460 lung = test system: NCI-H460 lung
SR leukemia = test system: SR leukemia
SF-295 CNS = test system: SF-295 CNS
HS 578T breast = test system: HS 578T breast
RXF 393 renal = test system: RXF 393 renal
EKVX NSCLC = test system: EKVX NSCLC
BT-549 breast = test system: BT-549 breast
IGROV1 ovarian = test system: IGROV1 ovarian
786-0 renal = test system: 786-0 renal
HL-60(TB) leukemia = test system: HL-60(TB) leukemia
K-562 leukemia = test system: K-562 leukemia
UO-31 renal = test system: UO-31 renal
MCF7 breast = test system: MCF7 breast
U251 CNS = test system: U251 CNS
SK-MEL-5 melanoma = test system: SK-MEL-5 melanoma
OVCAR-5 ovarian = test system: OVCAR-5 ovarian
RPMI-8226 leukemia = test system: RPMI-8226 leukemia
SW-620 colon = test system: SW-620 colon

Fc1ccc(-c2cc3nc(C(Cl)Cl)nc(-c4ccc(F)cc4)n3n2)cc1
GI50 (UACC-257 melanoma): 2.26 µM
TGI (UACC-257 melanoma): 4.91 µM
GI50 (HT29 colon): 0.746 µM
TGI (HT29 colon): 3.85 µM
GI50 (SK-OV-3 ovarian): 2.36 µM
TGI (SK-OV-3 ovarian): 6.34 µM
GI50 (MOLT-4 leukemia): 1.8 µM
TGI (MOLT-4 leukemia): 9.61 µM
GI50 (HCT-15 colon): 1.11 µM
TGI (HCT-15 colon): 6.16 µM
GI50 (A498 renal): 1.65 µM
TGI (A498 renal): 3.44 µM
GI50 (UACC-62 melanoma): 3.21 µM
TGI (UACC-62 melanoma): > 100 µM
GI50 (HCT-116 colon): 0.637 µM
TGI (HCT-116 colon): 6.3 µM
GI50 (SK-MEL-2 melanoma): > 100 µM
TGI (SK-MEL-2 melanoma): > 100 µM
GI50 (SF-268 CNS): 2.48 µM
TGI (SF-268 CNS): > 100 µM
GI50 (CAKI-1 renal): 1.89 µM
TGI (CAKI-1 renal): 6.74 µM
GI50 (SNB-75 CNS): 64.9 µM
TGI (SNB-75 CNS): > 100 µM
GI50 (T-47D breast): 2.62 µM
TGI (T-47D breast): > 100 µM
GI50 (KM12 colon): 1.73 µM
TGI (KM12 colon): 5.22 µM
GI50 (HOP-92 NSCLC): 2.6 µM
TGI (HOP-92 NSCLC): 9.69 µM
GI50 (SF-539 CNS): 3.56 µM
TGI (SF-539 CNS): > 100 µM
GI50 (COLO 205 colon): 1.15 µM
TGI (COLO 205 colon): 2.52 µM
GI50 (DU-145 prostate): 0.443 µM
TGI (DU-145 prostate): 2.97 µM
GI50 (HCC-2998 colon): 1.01 µM
TGI (HCC-2998 colon): 2.35 µM
GI50 (OVCAR-3 ovarian): 1.54 µM
TGI (OVCAR-3 ovarian): 3.51 µM
GI50 (ACHN renal): 0.676 µM
TGI (ACHN renal): 4.16 µM
GI50 (NCI/ADR-RES ovarian): 1.26 µM
TGI (NCI/ADR-RES ovarian): 5.84 µM
GI50 (SNB-19 CNS): 1.65 µM
TGI (SNB-19 CNS): 6.88 µM
GI50 (CCRF-CEM leukemia): 4.21 µM
TGI (CCRF-CEM leukemia): > 100 µM
GI50 (OVCAR-4 ovarian): 1.82 µM
TGI (OVCAR-4 ovarian): 5.75 µM
GI50 (NCI-H226 lung): 6.14 µM
TGI (NCI-H226 lung): > 100 µM
GI50 (HOP-62 NSCLC): 1.5 µM
TGI (HOP-62 NSCLC): 4.26 µM
GI50 (NCI-H460 lung): 0.591 µM
TGI (NCI-H460 lung): 3.17 µM
GI50 (SR leukemia): 1.4 µM
TGI (SR leukemia): > 100 µM
GI50 (SF-295 CNS): 2.17 µM
TGI (SF-295 CNS): 5.78 µM
GI50 (HS 578T breast): 4.14 µM
TGI (HS 578T breast): > 100 µM
GI50 (RXF 393 renal): 1.1 µM
TGI (RXF 393 renal): 2.43 µM
GI50 (EKVX NSCLC): 1.68 µM
TGI (EKVX NSCLC): 4.37 µM
GI50 (BT-549 breast): 2.43 µM
TGI (BT-549 breast): 42.8 µM
GI50 (IGROV1 ovarian): 3.99 µM
TGI (IGROV1 ovarian): > 100 µM
GI50 (786-0 renal): 16.9 µM
TGI (786-0 renal): > 100 µM
GI50 (HL-60(TB) leukemia): 0.69 µM
GI50 (K-562 leukemia): 2.3 µM
TGI (K-562 leukemia): > 100 µM
GI50 (UO-31 renal): 3.1 µM
TGI (UO-31 renal): > 100 µM
GI50 (MCF7 breast): 1.21 µM
TGI (MCF7 breast): > 100 µM
GI50 (U251 CNS): 1.22 µM
TGI (U251 CNS): 5.27 µM
GI50 (SK-MEL-5 melanoma): > 100 µM
TGI (SK-MEL-5 melanoma): > 100 µM
GI50 (OVCAR-5 ovarian): 2.27 µM
TGI (OVCAR-5 ovarian): 7.29 µM
GI50 (RPMI-8226 leukemia): 2.66 µM
TGI (RPMI-8226 leukemia): > 100 µM
GI50 (SW-620 colon): 1.11 µM
TGI (SW-620 colon): 6.85 µM
